# Source: patent US6878742B2, “Heterocyclic sulfonamide inhibitors of beta amyloid production” (Wyeth, priority 2000, dated 2005)
# Where “and” joins values, the source holds several entries; their conditions need not be identical. Equal entries are not always repeated.
# System: amyloid precursor protein (APP) proteolysis
# Assay: Repressor Release Assay (RRA)
# Assay type: cell-based
# Settings: Conc 3 μg/mL; luciferase activity over diluent control; read-out: APPI Fold Increase
# Protocol: The beta amyloid inhibitory activity of many of the compounds of the present invention has been determined using the Repressor Release Assay (RRA). See, Table 23 below. A compound is considered active in RRA if it leads to at least a 1.5 fold increase in luciferase activity at 20 μM and is non-toxic.
# The compounds generated as described in Examples 1 through 220 were tested in the RRA in accordance with published techniques [Shuey, D. J., Sheiffele, P., Jones, D., Cockett, M. I., and Quinet, E. M. (1999), “Repressor release: a useful tool for monitoring amyloid precursor protein (APP) proteolysis in mammalian cells”, Society for Neuroscience Abstracts, Vol. 25, 29th Annual Meeting of Society for Neuroscience, Miami Beach, Fla., Oct. 23-28, 1999]. Briefly, this assay is performed as follows.
# CHO-K1 cells are cultured in whole DMEM media (DMEM—High Glucose with 10% fetal bovine serum, 1% Non-essential Amino Acids, and 1% Penicillin-Streptomycin) at 37° C. with 5% CO2. Two million cells are plated into 10-cm dishes 24 hrs prior to transfection.
# Transient transfections are completed as recommended by Gibco BRL using their Lipofectamine Plus system. First, 6 μg of pRSVO-luc and 6 μg of APP-lacI construct DNA are added to 460 μL Opti-Mem transfection media and incubated with 30 μL Plus reagent for 15 minutes. Then, a lipid mixture of 40 μL Lipofectamine reagent and 460 μL Opti-Mem transfection media is incubated with the DNA-Plus reagent mixture for 15 minutes. During the DNA-lipid incubation, the CHO-K1 cells are washed once and covered in 5.0 mL DMEM media without Penicillin-Streptomycin. The DNA-lipid preparation is then layered onto these cells and incubated at 37° C. overnight.
# One and one half million transfected cells per well (100 μL total volume) are plated into sterile, opaque Packard 96-well Cultur-Plates in clear DMEM whole media (DMEM—without phenol red) and incubated at 37° C. with 5% CO2 for 3-5 hours.
# Compounds are diluted using two different protocols; one protocol is used for compounds supplied neat (weighed powder in vial) and the other protocol is used for compounds supplied in solution (20 mM in DMSO in 96-well plates). For both protocols, 25 mM Hepes and 25 mM Hepes/1% DMSO are prepared fresh to be used as diluent. The Hepes/DMSO is used as the diluent control on all experimental plates.
# The following table depicts the steps for compound dilution (please note that the last step is the addition of compound to cells/media in tissue culture plate):
# Because some compounds arrive in 96-well format at 20 mM, the following represents the protocol for their dilution (note that an average molecular weight of these compounds was used to calculate these dilutions and as above, the last step is the addition of compound to cells/media in tissue culture plate):
# Once compounds are diluted, they are applied in duplicate on cells in tissue culture plates (prepared above). Cells are incubated with compound at 37° C. with 5% CO2 for an additional 36-48 hours.
# Luciferase assays (LucLite reagent, Packard) are performed and are read on a Packard TopCount instrument. Media is removed from each 96-well plate and replaced with 100 μL PBS per well (with Mg^2+ and Ca^2+). An equal volume (100 μL) of the LucLite lysis/substrate buffer is added to each well and the plates are sealed and mixed in the dark on a rotary shaker for 15-30 minutes at room temperature. Luciferase readings are then taken on the TopCount instrument. Measurements are expressed as relative light units (RLU) and are calculated and analyzed in MS Excel as follows.
# A compound is considered active in RRA if it leads to at least a 1.5 fold increase in luciferase activity at 20 μM and is non-toxic, as determined by loss of signal (≦0.75 fold increase). Fold increase is the amount of luciferase activity (measured in relative light units) over diluent control. SEM represents the standard error of the mean for fold increase (not shown).
row,Molecule,fold induction at 3 µg/mL
1,"CC[C@H](C)[C@@H](CO)NS(=O)(=O)C1=CC=C(Br)S1(=O)=O [Example 18, 5-Bromo-N-[(1S,2S)-1-(hydroxymethyl)-2-methylbutyl]thiophene-2-sulfonamide 1,1-dioxide]",2.19

# Same assay, conditions: Conc 10 μg/mL; luciferase activity over diluent control; read-out: APPI Fold Increase
row,Molecule,fold induction at 10 µg/mL
1,"CC[C@H](C)[C@H](NS(=O)(=O)c1cccs1)C(O)c1ccc(N(C)C)cc1 (stereo partly drawn) [Example 154, N-{(S,S)-1-[[4-(dimethylamino)phenyl](hydroxy)methyl]-2-methylbutyl}thiophene-2-sulfonamide]",4.23
2,"CC[C@H](C)[C@H](NS(=O)(=O)c1ccc(Cl)s1)C(O)(c1cccc2ccccc12)c1cccc2ccccc12 [Example 172, 5-chloro-N-((S,S)-1-{hydroxy[di(1-naphthyl)]methyl}-2-methylbutyl)thiophene-2-sulfonamide]",2
3,"CC[C@H](C)[C@@H](CO)NS(=O)(=O)C1=CC=C(Br)S1(=O)=O [Example 18, 5-Bromo-N-[(1S,2S)-1-(hydroxymethyl)-2-methylbutyl]thiophene-2-sulfonamide 1,1-dioxide]",5.23

# Same assay, conditions: Conc 20 μg/mL; luciferase activity over diluent control
row,Molecule,APPI Fold Increase
1,CCNC(C)(CO)CNS(=O)(=O)c1ccc(Cl)s1 (stereo not shown) [Example 80],1.8 fold
2,O=S(=O)(NC1(CO)CCc2ccccc21)c1ccc(Cl)s1 (stereo not shown) [Example 179],8.3 fold
3,"5-chloro-N-{(S,S)-2-hydroxy-1-[(S)-1-methylpropyl]pent-4-enyl}thiophene-2-sulfonamide [Example 188]",6.3 fold and 3.6 fold

# Same assay, conditions: Conc 20 μg/mL; luciferase activity over diluent control; read-out: APPI Fold Increase
row,Molecule,fold induction at 20 µg/mL
1,"CC(C)C[C@@H](c1cccnc1)[C@@H](CO)NS(=O)(=O)c1ccc(Br)s1 [Example 69, 5-bromo-N-[(1S,2S)-1-(hydroxymethyl)-4-methyl-2-pyridin-3-ylpentyl]thiophene-2-sulfonamide]",1.5
2,"CC[C@@H](CO)NS(=O)(=O)c1ccc(Cl)s1 [Example 100, 5-chloro-N-[(S)-1-(hydroxymethyl)propyl]thiophene-2-sulfonamide]",1.5
3,"C[C@@H](c1ccccc1)[C@@H](CO)NS(=O)(=O)c1ccc(Br)s1 [Example 66, 5-bromo-N-[(1S,2S)-1-(hydroxymethyl)-2-phenylpropyl]thiophene-2-sulfonamide]",5.3
4,"CC(C)C[C@@H](c1ccccc1)[C@@H](CO)NS(=O)(=O)c1ccc(Br)s1 [Example 68, 5-bromo-N-[(1S,2S)-1-(hydroxymethyl)-4-methyl-2-phenylpentyl]thiophene-2-sulfonamide]",2.3
5,"CC(=O)N1CCC(CO)(NS(=O)(=O)c2ccc(Cl)s2)CC1 [Example 203, N-[1-Acetyl-4-(hydroxymethyl)piperidin-4-yl]-5-chlorothiophene-2-sulfonamide]",1.5
6,"CCC(CC)[C@H](NS(=O)(=O)c1ccc(Cl)s1)C(C)(C)O [Example 223, 5-Chloro-N-[(S)-2-ethyl-1-(1-hydroxy-1-methylethyl)butyl]thiophene-2-sulfonamide]",5.6
7,"COC1CCC([C@@H](CO)NS(=O)(=O)c2ccc(Cl)s2)CC1 (stereo partly drawn) [Example 199, 5-Chloro-N-[(S)-2-hydroxy-1-(4-methoxycyclohexyl)ethyl]thiophene-2-sulfonamide]",2.8
8,"CC[C@H](C)[C@H](NS(=O)(=O)c1ccc(Cl)s1)[C@@H](O)C1C=CCCC1 (stereo partly drawn) [Example 155, 5-Chloro-N-{(S,S)-1-[(S)-cyclohex-2-en-1-yl(hydroxy)methyl]-2-methylbutyl}thiophene-2-sulfonamide]",4.2
9,"CCCCC(CO)NS(=O)(=O)c1ccc(Br)s1 (racemic) [Example 106, 5-bromo-N-[1-(hydroxymethyl)pentyl]thiophene-2-sulfonamide]",2.4
10,"COc1ccc([C@@H](C)[C@@H](CO)NS(=O)(=O)c2ccc(Cl)s2)cc1 [Example 28, 5-chloro-N-[(1S,2R)-1-(hydroxymethyl)-2-(4-methoxyphenyl)propyl]thiophene-2-sulfonamide]",7
11,"CC[C@H](C)[C@@H](CO)NS(=O)(=O)C1=CC=C(Br)S1(=O)=O [Example 18, 5-Bromo-N-[(1S,2S)-1-(hydroxymethyl)-2-methylbutyl]thiophene-2-sulfonamide 1,1-dioxide]",5.7
12,"CCC[C@H](CC)[C@@H](CO)NS(=O)(=O)c1ccc(Br)s1 [Example 60, 5-bromo-N-[(1S,2S)-2-ethyl-1-(hydroxymethyl)pentyl]thiophene-2-sulfonamide]",6.9
